Source: patent US20160158200A1, “Combinations of Hepatitis C Virus Inhibitors” (priority 2013, published 2016)

tested on: HCV genotype-1a variant with glutamine 30 changed to glutamate in the NS5A protein; format: cell-based; conditions: test compound titrated with BMS-790052 fixed at 200 nM; genotype 1a Q30E replicon
Method in brief: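 Synergy was assessed by combining several fixed amounts of an NS5A-targeting compound with a titration of the second compound of interest.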

Row | SMILES | Fold-Synergistic 1a (Q30E)
1 | COCC(C)(C)C(=O)N[C@H](c1ncc(-c2ccc(-c3ccc(-c4cnc([C@@H](NC(=O)C(C)(C)COC)C(C)C)[nH]4)cc3)cc2)[nH]1)C(C)C [Compound P-70] | >100 fold
2 | COc1ccccc1C(=O)N[C@H](c1ncc(-c2ccc(-c3ccc(-c4cnc([C@@H](NC(=O)c5ccccc5OC)C(C)C)[nH]4)cc3)cc2)[nH]1)C(C)C [Compound S-68] | >100 fold
3 | CN1CCN(C(=O)C(=O)N[C@H](c2nc(-c3ccc(-c4ccc(-c5c[nH]c([C@@H](NC(=O)C(=O)N6CCN(C)CC6)C(C)(C)C)n5)cc4)cc3)c[nH]2)C(C)(C)C)CC1 [Compound W-35] | >100 fold
4 | CC1(C(=O)N[C@H](c2nc(-c3ccc(-c4ccc(-c5c[nH]c([C@@H](NC(=O)C6(C)COC6)C(C)(C)C)n5)cc4)cc3)c[nH]2)C(C)(C)C)COC1 [Compound N-113] | >100 fold
5 | CC(C)(F)C(=O)N[C@H](c1ncc(-c2ccc(-c3ccc(-c4cnc([C@@H](NC(=O)C(C)(C)F)C5(C)CC5)[nH]4)cc3)cc2)[nH]1)C1(C)CC1 [Compound Y-36] | >100 fold
6 | CC(C)(C)[C@H](NC(=O)C(C)(C)C1(O)CCC(F)(F)CC1)c1nc2ccc(C#Cc3ccc4nc([C@@H](NC(=O)C(C)(C)C5(O)CCC(F)(F)CC5)C(C)(C)C)[nH]c4c3)cc2[nH]1.O=C(O)C(F)(F)F [Compound B41A] | >100 fold
7 | CC(C)(C)OC(=O)N1CCC(C)(C)[C@@H]1C(=O)N[C@H](c1nc(-c2ccc(-c3ccc(-c4c[nH]c([C@@H](NC(=O)[C@@H]5N(C(=O)OC(C)(C)C)CCC5(C)C)C(C)(C)C)n4)cc3)cc2)c[nH]1)C(C)(C)C [Compound W-211] | >100 fold
8 | Cc1cc(-c2ccc(-c3c[nH]c([C@@H](NC(=O)C4(C)CCC(F)(F)CC4)C(C)C)n3)cc2)ccc1-c1c[nH]c([C@@H](NC(=O)C2(C)CCC(F)(F)CC2)C(C)C)n1.O=C(O)C(F)(F)F [Compound N-84] | >100 fold
9 | CC(C)(C)[C@H](NC(=O)C1(NC(=O)C(F)(F)F)CCCCC1)c1nc(-c2ccc(-c3ccc(-c4c[nH]c([C@@H](NC(=O)C5(NC(=O)C(F)(F)F)CCCCC5)C(C)(C)C)n4)cc3)cc2)c[nH]1.O=C(O)C(F)(F)F.O=C(O)C(F)(F)F [Compound W-269] | >100 fold
10 | CC(C)[C@H](NC(=O)N1CCOCC1)c1ncc(-c2ccc(-c3ccc(-c4cnc([C@@H](NC(=O)N5CCOCC5)C(C)C)[nH]4)cc3)cc2)[nH]1 [Compound S-231] | >10 fold
11 | CC(C)[C@H](NC(=O)C(=O)C1(C)CCC1)c1ncc(-c2ccc(-c3ccc(-c4cnc([C@@H](NC(=O)C(=O)C5(C)CCC5)C(C)C)[nH]4)cc3)cc2)[nH]1 [Compound P-115] | >100 fold
12 | CC(C)OC(=O)N[C@@H](C(=O)N[C@H](c1ncc(-c2ccc(-c3ccc(-c4cnc([C@@H](NC(=O)[C@H](NC(=O)OC(C)C)C(C)C)C(C)C)[nH]4)cc3)cc2)[nH]1)C(C)C)C(C)C [Compound S-250] | >100 fold
13 | CC1(C)COC(C)(C(=O)N[C@H](c2nc(-c3ccc(-c4ccc(-c5c[nH]c([C@@H](NC(=O)C6(C)OCC(C)(C)CO6)C(C)(C)C)n5)cc4)cc3)c[nH]2)C(C)(C)C)OC1 [Compound P-154] | >100 fold
14 | CCOC(=O)C(=O)N[C@H](c1nc(-c2ccc(-c3ccc(-c4c[nH]c([C@@H](NC(=O)C(=O)OCC)C(C)(C)C)n4)cc3)cc2)c[nH]1)C(C)(C)C [Compound W-30] | >100 fold
15 | CC(C)(C)[C@H](NC(=O)C1(C2(O)CCC(F)(F)CC2)CC1)c1nc2ccc(C#Cc3ccc4nc([C@@H](NC(=O)C5(C6(O)CCC(F)(F)CC6)CC5)C(C)(C)C)[nH]c4c3)cc2[nH]1.O=C(O)C(F)(F)F [Compound B41B] | >100 fold
16 | CC(C)(C)[C@H](Nc1ncccn1)c1nc(-c2ccc(-c3ccc(-c4c[nH]c([C@@H](Nc5ncc(Br)cn5)C(C)(C)C)n4)cc3)cc2)c[nH]1 [Compound W-31] | >10 fold
17 | CC(C)(C)[C@H](NC(=O)C1CC12CCOCC2)c1ncc(-c2ccc(-c3ccc(-c4cnc([C@@H](NC(=O)C5CC56CCOCC6)C(C)(C)C)[nH]4)cc3)cc2)[nH]1 (single isomer, unassigned) [Compound B72] | >100 fold
18 | CC(C)[C@H](NC(=O)C(O)(CF)CF)c1nc(-c2ccc(-c3ccc(-c4c[nH]c([C@@H](NC(=O)C(O)(CF)CF)C(C)C)n4)cc3)cc2)c[nH]1 [Compound N-142] | >100 fold
19 | COCCC(=O)N1C[C@H](F)C[C@H]1C(=O)N[C@H](c1nc(-c2ccc(-c3ccc(-c4c[nH]c([C@@H](NC(=O)[C@@H]5C[C@@H](F)CN5C(=O)CCOC)C(C)(C)C)n4)cc3)cc2)c[nH]1)C(C)(C)C [Compound W-103] | >100 fold

Row | SMILES | Fold-Synergistic 1a (Q30E)
20 | CCOC(=O)CC1(C(=O)N[C@H](c2nc(-c3ccc(-c4ccc(-c5c[nH]c([C@@H](NC(=O)C6(NC(=O)OCC)CCCCC6)C(C)(C)C)n5)cc4)cc3)c[nH]2)C(C)(C)C)CCCCC1 [Compound W-250] | >100 fold
21 | CC(C)N(CC(F)(F)F)C(=O)C(=O)N1CCC(C)(C)C1c1nc(-c2ccc(-c3ccc(-c4c[nH]c(C5N(C(=O)C(=O)N(CC(F)(F)F)C(C)C)CCC5(C)C)n4)cc3)cc2)c[nH]1 (centres unmarked) [Compound W-236] | >100 fold
22 | CC(C)[C@H](NC(=O)COc1ccccc1)c1ncc(-c2ccc(-c3ccc(-c4cnc([C@@H](NC(=O)COc5ccccc5)C(C)C)[nH]4)cc3)cc2)[nH]1 [Compound S-35] | >100 fold
23 | CC(C)CC(=O)N[C@@H](c1nc(-c2ccc(-c3ccc(-c4c[nH]c([C@H](NC(=O)CC(C)C)C(C)(C)C)n4)cc3)cc2)c[nH]1)C(C)(C)C [Compound N-67] | >10 fold
24 | CC(C)[C@H](NC(=O)N1CCN(C)CC1)c1ncc(-c2ccc(-c3ccc(-c4cnc([C@@H](NC(=O)N5CCN(C)CC5)C(C)C)[nH]4)cc3)cc2)[nH]1 [Compound S-235] | >10 fold
25 | CC(CO)(CF)C(=O)NC(c1nc(-c2ccc(-c3ccc(-c4c[nH]c(C(NC(=O)C(C)(CO)CF)C(C)(C)C)n4)cc3)cc2)c[nH]1)C(C)(C)C (mixture of isomers) [Compound N-138] | >100 fold
26 | CC(C)(C)[C@H](NC(=O)C(C)(O)C1(C)CC1)c1nc(-c2ccc(-c3ccc(-c4c[nH]c([C@@H](NC(=O)C(C)(O)C5(C)CC5)C(C)(C)C)n4)cc3)cc2)c[nH]1 (single isomer, unassigned) [Compound L-93a] | >100 fold
27 | CC(C)(C)[C@H](NC(=O)C(C)(O)C1(C)CC1)c1nc(-c2ccc(-c3ccc(-c4c[nH]c([C@@H](NC(=O)C(C)(O)C5(C)CC5)C(C)(C)C)n4)cc3)cc2)c[nH]1 (stereo partly drawn) [Compound L-93b] | >100 fold
28 | CC(C)(C)[C@H](NC(=O)[C@@]1(C)CCC(F)(F)CO1)c1ncc(-c2ccc(-c3ncc(-c4cnc([C@@H](NC(=O)[C@@]5(C)CCC(F)(F)CO5)C(C)(C)C)[nH]4)cn3)cc2)[nH]1 [Compound Y-84, (R)—N—((S)-1-(5-(2-(4-(2-((S)-1-((R)-5,5-difluoro-2-methyltetrahydro-2H-pyran-2-carboxamido)-2,2-dimethylpropyl)-1H-imidazol-5-yl)phenyl)pyrimidin-5-yl)-1H-imidazol-2-yl)-2,2-dimethylpropyl)-5,5-difluoro-2-methyltetrahydro-2H-pyran-2-carboxamide] | >100 fold
29 | CN(C(=O)OC(C)(C)C)C1(C(=O)N[C@H](c2nc(-c3ccc(-c4ccc(-c5c[nH]c([C@@H](NC(=O)C6(N(C)C(=O)OC(C)(C)C)CCC6)C(C)(C)C)n5)cc4)cc3)c[nH]2)C(C)(C)C)CCC1.O=C(O)C(F)(F)F.O=C(O)C(F)(F)F [Compound L-14] | >100 fold
30 | CC1([C@H](NC(=O)C2(C(C)(C)O)CC2)c2ncc(-c3ccc(-c4ccc(-c5cnc([C@@H](NC(=O)C6(C(C)(C)O)CC6)C6(C)CC6)[nH]5)cc4)cc3)[nH]2)CC1 [Compound B149] | >100 fold
31 | CC1(C)C2CCC(C(=O)N[C@H](c3nc(-c4ccc(-c5ccc(-c6c[nH]c([C@@H](NC(=O)C78CCC(C7)C(C)(C)C8O)C7(C)CC7)n6)cc5)cc4)c[nH]3)C3(C)CC3)(C2)C1O (single isomer, unassigned) [Compound Y-117] | >100 fold
32 | CCC(C)(C)C(=O)N[C@H](c1nc(-c2ccc(-c3ccc(-c4c[nH]c([C@@H](NC(=O)C(C)(C)CC)C(C)(C)C)n4)cc3)cc2)c[nH]1)C(C)(C)C [Compound P-11] | >100 fold
33 | CC(C)(C)[C@H](NC(=O)C1(F)CCC(F)(F)CC1)c1nc(-c2ccc(-c3ccc(-c4c[nH]c([C@@H](NC(=O)C5(F)CCC(F)(F)CC5)C(C)(C)C)n4)cc3)cc2)c[nH]1 [Compound P-39] | >100 fold
34 | CC(C)(C)C(=O)N[C@H](c1nc2ccc(-c3ccc(-c4ccc5nc([C@@H](NC(=O)C(C)(C)C)C(C)(C)C)[nH]c5c4)cc3)cc2[nH]1)C(C)(C)C.O=C(O)C(F)(F)F [Compound B33] | >100 fold
35 | CC(C)(C)OC(=O)N1CCCCC1(C)C(=O)N[C@H](c1nc(-c2ccc(-c3ccc(-c4c[nH]c([C@@H](NC(=O)C5(C)CCCCN5C(=O)OC(C)(C)C)C(C)(C)C)n4)cc3)cc2)c[nH]1)C(C)(C)C (single isomer, unassigned) [Compound L-46b] | >100 fold
36 | COC(C)(CO)C(=O)N[C@H](c1nc(-c2ccc(-c3ccc(-c4c[nH]c([C@@H](NC(=O)C(C)(CO)OC)C(C)(C)C)n4)cc3)cc2)c[nH]1)C(C)(C)C (single isomer, unassigned) [Compound W-237] | >100 fold
37 | CC(C)(NC(=O)CC(F)(F)F)C(=O)N[C@H](c1nc(-c2ccc(-c3ccc(-c4c[nH]c([C@@H](NC(=O)C(C)(C)NC(=O)CC(F)(F)F)C(C)(C)C)n4)cc3)cc2)c[nH]1)C(C)(C)C [Compound L-144] | >100 fold
38 | CC(C)(C)[C@H](NC(=O)C(=O)N(CCC#N)C1CC1)c1nc(-c2ccc(-c3ccc(-c4c[nH]c([C@@H](NC(=O)C(=O)N(CCC#N)C5CC5)C(C)(C)C)n4)cc3)cc2)c[nH]1 [Compound W-48] | >100 fold
